“And” between values parts separate entries of the source, which are not always exact repeats. Equal values may be shown once.
Assays:
[1] = test system: LU-01-0266 xenograft; test: LU-01-0266 xenograft model, Compound 1 and radiation; assay type: in vivo, mice; conditions: for Classification / Synergy score: through Day 20
Source text: (§1) The LU-01-0266 xenograft model is a human primary non-small cell lung tumor model. Approximately nine week old female BALB/c nude (Shanghai Sino-British SIPPR/BK Laboratory Animal Co., LTD.) mice were implanted subcutaneously with approximate 30 mm^3 LU-01-0266 tumor slices in the right flank. When the mean tumor volume reached approximately 173 mm^3, the animals were randomized into 10 treatment groups (n=8/group).
(§2) Compound 1 [((1R,2R,3S,4R)-2,3-dihydroxy-4-(2-(3-(trifluoromethylthio) ? phenyl)pyrazolo[1,5-a]pyrimidin-7-ylamino)cyclopentyl)methyl sulfamate] is formulated in 10% HPbCD in sterile water and administered intravenously on days 0, 3, 7, 10, 14, 17 in the LU-01-0266 and HN-13-0007 models and on days 0, 3, 8, 11, 15, 18 in the ST-02-0004 model and in the second study with the LU-01-0030 model. Compound 1 formulation was prepared weekly and stored at room temperature in the dark.
(§3) Beam-focused radiation was delivered using 2 Gray dosed on days 0, 1, 7, and 8 or on days 0, 3, 7, and 10 in the LU-01-0266 and HN-13-0007 models. In the ST-02-0004 model 2 Gray of radiation was delivered on days 0, 1, 3, and 8. A Rad Source RS-2000 X-ray irradiator was used for therapy (Rad Source). Before radiation, animals were anesthetized by i.p. injection using 1.0% sodium pentobarbital at 80 mg/kg (Vendor: Sigma). Focused radiation was applied to each mouse at 1 Gy/min.
(§4) Tumors were measured twice weekly using vernier calipers. Tumor volumes were calculated using the following formula: (0.5×[length×width^2]). Treatment groups and dosing/treatment schedules are indicated in Tables 1a, 2a, 3a, 4a, and 5a below. Tumor size and body weight are measured approximately twice a week for the duration of the study. Mice are euthanized when their tumor volume reached approximately 1000 mm^3. Tumor growth continued to be monitored after the dosing period in some studies. In Tables 1a, 2a, 3a, 4a, and 5a tumor volumes are shown for HN-13-0014 (day 21), LU-01-0030 (day 21), the second LU-01-0030 study (day 20), LU-01-0266 (day 20), ST-02-0004 (day 21) and FIN-13-0007 (day 24), respectively. Average tumor volume is reported as a function of time for selected groups of selected studies.
(§5) Measurements from day 0 to day 20, day 21 or day 24 are analyzed as specified in Tables below. All tumor volumes have a value of 1 added to them before log10 transformation. For each animal, the log tumor volume at day 0 is subtracted from the log tumor volume on the subsequent days. This difference vs. time is used to calculate an area under the curve (AUC) for each animal using the trapezoid rule. In instances when an animal in a treatment group is removed early from the study, the last observed tumor value is carried forward through all subsequent time points. The synergy score for the combination of agents A and B is defined as 100*(mean(AUCAB)−mean(AUCA)−mean(AUCB)+mean(AUCctl))/mean(AUCctl): where AUCAB, AUCA, AUCB, and AUCctl are the AUC values for animals in the combination group, the A group, the B group, and the control group, respectively. The standard error of the synergy score is computed based on the variation in the AUC values among the animals. […] If the P-value is above 0.05, then the combination is considered to be additive. If the P-value is below 0.05, and the synergy score is less than zero, then the combination is considered to be synergistic. If the P-value is below 0.05 and the synergy score was greater than zero, but the mean AUC for the combination was lower than the lowest mean AUC among the two single agent treatments, then the combination was sub-additive. If the P-value is below 0.05 and if the synergy score was greater than zero, and the mean AUC for the combination was greater than the mean AUC for at least one of the single agent treatments, then the combination was antagonistic.

[2] = test system: HCT-116 cells; test: In vitro colony formation assay; assay type: cell-based; conditions: after 10 days, replicate wells
Description: General Method: HCT-116 cells are grown in McCoy's 5A Medium supplemented with 10% fetal bovine serum. Cells are seeded (200/well) on a 12-well plate. The next day cells are treated with increasing concentrations of Compound 1 (in medium) and 2 hours later irradiated with 0, 2 or 4 gray. After an additional 6 hour, medium is replaced with and without (washout condition) Compound 1. After 10 days the number of colonies is counted and recorded. Radiator used is an X-ray irradiator (MBR-1520R-3, Hitachi Power Solutions Co., Ltd.).
Ten days following initiation of treatment, the number of HCT-116 colonies per well is counted using GelCount™ (Oxford Optronix Ltd.) and the raw data results are indicated in Table 6.

[3] = test system: ST-02-0004 xenograft; test: ST-02-0004 xenograft model, Compound 1 and radiation; assay type: in vivo, mice; conditions: for Classification / Synergy score: through Day 21
Source text: as §1, with “ST-02-0004” for “LU-01-0266”, “gastric cancer” for “non-small cell lung tumor”, “162” for “173”, “6” for “10”
as §2, §3, §4, §5

[4] = 6.25 mg/kg Compound 1 + 2 Gy Radiation D0, 1, 7, 8
[5] = 6.25 mg/kg Compound 1 + 2 Gy Radiation D0, 3, 7, 10
[6] = 15 mg/kg Compound 1 + 2 Gy Radiation D0, 1, 7, 8
[7] = 15 mg/kg Compound 1 + 2 Gy Radiation D0, 3, 7, 10
[8] = 6.25 mg/kg compound 1 + 2 Gy Radiation D0, 1, 3, 8
[9] = 15 mg/kg compound 1 + 2 Gy Radiation D0, 1, 3, 8

With NS(=O)(=O)OC[C@H]1C[C@@H](Nc2ccnc3cc(-c4cccc(SC(F)(F)F)c4)nn23)[C@H](O)[C@@H]1O [Compound 1, ((1R,2R,3S,4R)-2,3-dihydroxy-4-(2-(3-(trifluoromethylthio)phenyl)pyrazolo[1,5-a]pyrimidin-7-ylamino)cyclopentyl)methyl sulfamate] the “Tumor Volume Day 20” value ([1]; 6.25 mg/kg Compound 1 IV BIWx3 + 2 Gy Radiation Beam D 0, 1, 7, 8) was 181.6 mm^3, the “Tumor Volume Day 20” value ([1]; 6.25 mg/kg Compound 1 IV BIWx3 + 2 Gy Radiation Beam D 0, 3, 7, 10) was 213.4 mm^3 and the “Tumor Volume Day 20” value ([1]; 6.25 mg/kg Compound 1 IV BIWx3 = D 0, 3, 7, 10, 14, 17, single agent) was 1004.5 mm^3. For the same compound, the “Tumor Volume Day 20” value ([1]; 15 mg/kg Compound 1 IV BIWx3 + 2 Gy Radiation Beam D 0, 1, 7, 8) was 77.4 mm^3, the “Tumor Volume Day 20” value ([1]; 15 mg/kg Compound 1 IV BIWx3 + 2 Gy Radiation Beam D 0, 3, 7, 10) was 174.9 mm^3 and the “Tumor Volume Day 20” value ([1]; 15 mg/kg Compound 1 IV BIWx3 = D 0, 3, 7, 10, 14, 17, single agent) was 779 mm^3. For the same compound, the combination effect ([1]; Compound 1 with 2 Gy radiation) was “additive combination effect”, the “anti-tumor activity compared to the vehicle control” value ([1]; single agent, IV at 6.25 and 15 mg/kg BIW for 3 weeks on Days 0, 3, 7, 10, 14, 17) was “weak anti-tumor activity” and the Classification [1, 4] was “Additive (If the P-value is above 0.05, then the combination is considered to be additive)”. For the same compound, the Synergy score [1, 4] was 14, the Classification [1, 5] was “Additive (If the P-value is above 0.05, then the combination is considered to be additive)” and the Synergy score [1, 5] was 15. The Classification [1, 6] was “Additive (If the P-value is above 0.05, then the combination is considered to be additive)”, the Synergy score [1, 6] was −25 and the Classification [1, 7] was “Additive (If the P-value is above 0.05, then the combination is considered to be additive)”. For the same compound, the Synergy score [1, 7] was 12, the “Number of Colonies/well” value ([2]; Washout No, Radiation 0 Gray, Compound 1 30 nM) was 0 and the “Number of Colonies/well” value ([2]; Washout No, Radiation 0 Gray, Compound 1 100 nM) was 0. The “Number of Colonies/well” value ([2]; Washout No, Radiation 0 Gray, Compound 1 300 nM) was 0, the “Number of Colonies/well” value ([2]; Washout No, Radiation 2 Gray, Compound 1 30 nM) was 0 and the “Number of Colonies/well” value ([2]; Washout No, Radiation 2 Gray, Compound 1 100 nM) was 0. For the same compound, the “Number of Colonies/well” value ([2]; Washout No, Radiation 2 Gray, Compound 1 300 nM) was 0, the “Number of Colonies/well” value ([2]; Washout No, Radiation 4 Gray, Compound 1 30 nM) was 0 and the “Number of Colonies/well” value ([2]; Washout No, Radiation 4 Gray, Compound 1 100 nM) was 0. For the same compound, the “Number of Colonies/well” value ([2]; Washout No, Radiation 4 Gray, Compound 1 300 nM) was 0, the “Number of Colonies/well” value ([2]; Washout Yes, Radiation 0 Gray, Compound 1 30 nM) was 20 (2×) and 26 and the “Number of Colonies/well” value ([2]; Washout Yes, Radiation 0 Gray, Compound 1 100 nM) was 1 (2×) and 0. For the same compound, the “Number of Colonies/well” value ([2]; Washout Yes, Radiation 0 Gray, Compound 1 300 nM) was 0, the “Number of Colonies/well” value ([2]; Washout Yes, Radiation 2 Gray, Compound 1 30 nM) was 3 and 7 and 6 and the “Number of Colonies/well” value ([2]; Washout Yes, Radiation 2 Gray, Compound 1 100 nM) was 0. The “Number of Colonies/well” value ([2]; Washout Yes, Radiation 2 Gray, Compound 1 300 nM) was 0, the “Number of Colonies/well” value ([2]; Washout Yes, Radiation 4 Gray, Compound 1 30 nM) was 1 (2×) and 4 and the “Number of Colonies/well” value ([2]; Washout Yes, Radiation 4 Gray, Compound 1 100 nM) was 0 (2×) and 1. The “Number of Colonies/well” value ([2]; Washout Yes, Radiation 4 Gray, Compound 1 300 nM) was 0, the “Tumor Volume Day 21” value ([3]; 6.25 mg/kg compound 1 IV BIWx3 + 2 Gy Radiation Beam D 0, 1, 3, 8) was 266.8 mm^3 and the “Tumor Volume Day 21” value ([3]; 6.25 mg/kg compound 1 IV BIWx3 = D 0, 3, 8, 11, 15, 18, single agent) was 697.1 mm^3. For the same compound, the “Tumor Volume Day 21” value ([3]; 15 mg/kg compound 1 IV BIWx3 + 2 Gy Radiation Beam D 0, 1, 3, 8) was 178.2 mm^3, the “Tumor Volume Day 21” value ([3]; 15 mg/kg compound 1 IV BIWx3 = D 0, 3, 8, 11, 15, 18, single agent) was 755.2 mm^3 and the combination effect ([3]; Compound 1 at 6.25 mg/kg with 2 Gy of Radiation) was “additive combination effect”. For the same compound, the combination effect ([3]; Compound 1 at 15 mg/kg with 2 Gy of Radiation) was “synergistic combination effect”, the “anti-tumor activity compared to the vehicle control” value ([3]; single agent, IV at 6.25 and 15 mg/kg for 3 weeks on Days 0, 3, 8, 11, 15 and 18) was “no significant anti-tumor activity” and the Classification [3, 8] was “Additive (If the P-value is above 0.05, then the combination is considered to be additive)”. For the same compound, the Synergy score [3, 8] was 10, the Classification [3, 9] was “Synergy (If the P-value is below 0.05, and the synergy score is less than zero, then the combination is considered to be synergistic)” and the Synergy score [3, 9] was −49.

Source: patent publication US10335411B2, “Administration of ubiquitin-activating enzyme inhibitor and radiation” (Millennium Pharmaceuticals, Inc., priority 2014, dated 2019)
